Converted amounts (≈) assume the structure as drawn. Read-outs that look alike come from different tables or passages of the source.
Assays:
Type in all cases: cell-based
K. oxytoca Clinical = assay: MIC (broth microdilution or agar dilution, CLSI)
Procedure, shortened: (§1)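 Isolates other than streptococci and anaerobes, which had their own procedures, were grown overnight at 35° C on tryptic soy agar with 5% sheep blood. Suspensions were then diluted to a final inoculum of 5×10^5 CFU/mL in broth microdilution wells.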

S. aureus ATCC 700699 = assay: MIC (broth microdilution or agar dilution, CLSI)
Procedure, shortened: as §1

P. aeruginosa ATCC 27853 = assay: MIC (broth microdilution or agar dilution, CLSI)
Procedure, shortened: (§2)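 MICs were measured by CLSI broth microdilution or agar dilution over 128-0.06 μg/mL test compound at 2.5% final DMSO, in triplicate. Non-streptococcal, aerobic strains were grown overnight at 35° C on sheep blood agar, suspended in cation-adjusted Mueller-Hinton broth to 0.5 McFarland, and diluted to 5×10^5 CFU/mL.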

E. faecium Line R & VRE = assay: MIC (broth microdilution or agar dilution, CLSI)
Procedure, shortened: as §2

P. aeruginosa ΔAmex OprM = assay: MIC (broth microdilution or agar dilution, CLSI)
Procedure, shortened: as §2

S. aureus hVISA = assay: MIC (broth microdilution or agar dilution, CLSI)
Procedure, shortened: as §1

A. baumannii ATCC 19606 = assay: MIC (broth microdilution or agar dilution, CLSI)
Procedure, shortened: as §1

E. faecalis VRE [1] = assay: MIC (CLSI), third E. faecalis VRE line of Table 4; details: Enterococcus faecalis, VRE
Description: (§3) Minimum inhibitory concentrations (MICs) were determined by broth microdilution method or agar dilution method following the Clinical and Laboratory Standards Institute guidelines. Standard bacterial strains were obtained from American Type Culture Collection (ATCC). Other bacterial strains were obtained from hospitals and commercial sources, so noted in Table 11. Before the start of the MIC experiment, standard and test compound stock solutions were prepared in dimethyl sulfoxide (DMSO, Aldrich D2650) at a stock concentration of 5,120 μg/mL. The compound concentration range typically employed for each experiment was 128-0.06 μg/mL (2.5% final DMSO concentration). Clindamycin was used as a comparator in all experiments and each experiment was performed in triplicate. Specialized procedures were employed for streptococcal and anaerobic strains. All other bacterial strains were sub-cultured on blood agar plates (tryptic soy agar with 5% sheep blood, Hardy Diagnostics) and incubated overnight at 35° C. Organisms were suspended in cation-adjusted Mueller-Hinton broth (CaMHB, BD 212322) and optical density was adjusted to 0.5 McFarland standard. Suspensions were further diluted to obtain a final inoculum of 5×10^5 CFU/mL for broth microdilution experiments.

Escherichia coli c-ermB = assay: MIC, clinically derived E. coli with acquired resistance; details: Escherichia coli
Description: as §3

[2] = system: E. coli MP-74 LptD mutant; assay: MIC (broth microdilution or agar dilution, CLSI); details: Escherichia coli
Procedure, shortened: as §2

C. difficile ATCC 700057 = assay: MIC (broth microdilution or agar dilution, CLSI)
Procedure, shortened: as §2

C. scindens ATCC 35704 = assay: MIC (broth microdilution or agar dilution, CLSI)
Procedure, shortened: as §2

S. aureus MRSA = assay: MIC (broth microdilution or agar dilution, CLSI); details: Staphylococcus aureus
Procedure, shortened: as §2

E. faecium Clinical VRE = assay: MIC (broth microdilution or agar dilution, CLSI); details: Enterococcus faecium, VRE
Procedure, shortened: as §2

E. faecium VRE = assay: MIC (broth microdilution or agar dilution, CLSI); details: Enterococcus faecium, VRE
Procedure, shortened: as §2

S. aureus cErmA = assay: MIC (broth microdilution or agar dilution, CLSI); details: Staphylococcus aureus
Procedure, shortened: as §2

B. fragilis ATCC 25285 = assay: MIC (broth microdilution or agar dilution, CLSI); details: Bacteroides fragilis, read-out: MIC
Procedure, shortened: as §2

E. faecalis VRE [3] = assay: MIC (CLSI), second E. faecalis VRE line of Table 4; details: Enterococcus faecalis, VRE
Description: as §3

E. coli strain SQ110DTC = assay: MIC in LB medium against E. coli SQ110DTC and its FSA-513018b-resistant mutants (Table 14); details: Escherichia coli
[4] = Klebsiella oxytoca, K. oxytoca HAV#450, Clinical, read-out: MIC
[5] = Staphylococcus aureus, ATCC 700699 / VISA
[6] = Pseudomonas aeruginosa, ATCC27853, P. aeruginosa HAV#009, ATCC 27853, read-out: MIC
[7] = Staphylococcus aureus, S. aureus HAV#202, ATCC 700699 (VISA), read-out: MIC
[8] = Staphylococcus aureus, S. aureus HAV#204, hVISA, read-out: MIC
[9] = A. baumanii HAV#010, ATCC 19606
[10] = P. aeruginosa HAV#009, ATCC 27853
[11] = E. faecium HAV#319, Line R & Vanco R
[12] = P. aeruginosa HAV#039, ΔAmex OprM

## CO/N=C(\C(=O)N[C@@H]1C(=O)N2C(C(=O)O)=C(CSc3nc(=O)c(=O)[nH]n3C)CS[C@H]12)c1csc(N)n1 [Ceftriaxone]
K. oxytoca Clinical; [4]
  MIC: 64 µg/mL (≈ 115 µM)
S. aureus ATCC 700699; [5]
  MIC: > 128 µg/mL
P. aeruginosa ATCC 27853; [6]
  MIC: > 64 µg/mL
E. faecium Line R & VRE; Enterococcus faecium, E. faecium HAV#319, Line R & Vanco R, read-out: MIC
  MIC: > 256 µg/mL
P. aeruginosa ΔAmex OprM; Pseudomonas aeruginosa
  MIC: 16 µg/mL (≈ 28.9 µM)

## C[C@H]1c2cccc(O)c2C(=O)C2=C(O)[C@]3(O)C(=O)C(C(N)=O)=C(O)[C@@H](N(C)C)[C@@H]3[C@@H](O)[C@@H]21 [Doxycycline]
K. oxytoca Clinical; [4]
  MIC: 8 µg/mL (≈ 18 µM)
S. aureus ATCC 700699; [7]
  MIC: 16 µg/mL (≈ 36 µM)
S. aureus hVISA; [8]
  MIC: 16 µg/mL (≈ 36 µM)

## Gentamicin
K. oxytoca Clinical; K. oxytoca HAV#450, Clinical
  MIC: 4 µg/mL
S. aureus ATCC 700699; S. aureus HAV#202, ATCC 700699 (VISA)
  MIC: >64 µg/mL
S. aureus hVISA; S. aureus HAV#204, hVISA
  MIC: >64 µg/mL
A. baumannii ATCC 19606; [9]
  MIC: >64 µg/mL
P. aeruginosa ATCC 27853; [10]
  MIC: >64 µg/mL
E. faecium Line R & VRE; [11]
  MIC: 64 µg/mL
P. aeruginosa ΔAmex OprM; [12]
  MIC: >64 µg/mL

## C[C@H]1COc2c(N3CCN(C)CC3)c(F)cc3c(=O)c(C(=O)O)cn1c23 [Levofloxacin]
K. oxytoca Clinical; [4]
  MIC: 0.5 µg/mL (≈ 1.38 µM)
S. aureus ATCC 700699; [7]
  MIC: 32 µg/mL (≈ 88.6 µM)
S. aureus hVISA; [8]
  MIC: 8 µg/mL (≈ 22.1 µM)
A. baumannii ATCC 19606; Acinetobacter baumannii, ATCC19606, A. baumanii HAV#010, ATCC 19606, read-out: MIC
  MIC: 1 µg/mL (≈ 2.77 µM)
P. aeruginosa ATCC 27853; [6]
  MIC: 2 µg/mL (≈ 5.53 µM)
P. aeruginosa ΔAmex OprM; Pseudomonas aeruginosa
  MIC: 0.125 µg/mL (≈ 0.346 µM)

## CCC[C@@H]1C[C@@H](C(=O)N[C@@H]([C@H]2O[C@H](SC)[C@H](O)[C@@H](O)[C@H]2O)[C@H](C)Cl)N(C)C1 [Clindamycin, clindamycin, reference compound]
E. faecalis VRE [1]
  MIC: > 128 µg/mL
Escherichia coli c-ermB
  MIC: > 128 µg/mL
K. oxytoca Clinical; K. oxytoca HAV#450, Clinical
  MIC: >128 µg/mL
K. oxytoca Clinical; Klebsiella oxytoca
  MIC: > 128 µg/mL
S. aureus ATCC 700699; Staphylococcus aureus, ATCC700699
  MIC: > 128 µg/mL
S. aureus ATCC 700699; [5]
  MIC: > 128 µg/mL
S. aureus hVISA; S. aureus HAV#204, hVISA
  MIC: >128 µg/mL
S. aureus hVISA; Staphylococcus aureus
  MIC: > 128 µg/mL
A. baumannii ATCC 19606; [9]
  MIC: >128 µg/mL
A. baumannii ATCC 19606; Acinetobacter baumannii, ATCC19606
  MIC: > 128 µg/mL
P. aeruginosa ATCC 27853; [10]
  MIC: >128 µg/mL
P. aeruginosa ATCC 27853; Pseudomonas aeruginosa, ATCC27853
  MIC: > 128 µg/mL
E. faecium Line R & VRE; [11]
  MIC: >128 µg/mL
E. faecium Line R & VRE; Enterococcus faecium
  MIC: > 128 µg/mL
[2]
  MIC: 4 µg/mL (≈ 9.41 µM)
C. difficile ATCC 700057; C. difficile HAV#011, ATCC 700057
  MIC: 8 µg/mL (≈ 18.8 µM)
C. difficile ATCC 700057; Clostridioides difficile, ATCC700057, C. difficile ATCC 700057, read-out: MIC
  MIC: 8 µg/mL (≈ 18.8 µM)
C. scindens ATCC 35704; C. scindens HAV#012, ATCC 35704
  MIC: 2 µg/mL (≈ 4.71 µM)
C. scindens ATCC 35704; [Clostridium] scindens, ATCC35704, C. scindens ATCC 35704, read-out: MIC
  MIC: 2 µg/mL (≈ 4.71 µM)
S. aureus MRSA
  MIC: 0.25 µg/mL (≈ 0.588 µM)
E. faecium Clinical VRE
  MIC: > 128 µg/mL
P. aeruginosa ΔAmex OprM; [12]
  MIC: 32 µg/mL (≈ 75.3 µM)
P. aeruginosa ΔAmex OprM; Pseudomonas aeruginosa
  MIC: 32 µg/mL (≈ 75.3 µM)
E. faecium VRE
  MIC: > 128 µg/mL
S. aureus cErmA
  MIC: > 128 µg/mL
B. fragilis ATCC 25285; ATCC25285, B. fragilis ATCC 25285
  MIC: 1 µg/mL (≈ 2.35 µM)
B. fragilis ATCC 25285; ATCC25285, B. fragilis HAV#013, ATCC 25285
  MIC: 0.5 µg/mL (≈ 1.18 µM)
E. faecalis VRE [3]
  MIC: > 128 µg/mL
E. coli strain SQ110DTC; E. coli SQ110DTC, WT
  MIC: 16 µg/mL (≈ 37.6 µM)
E. coli strain SQ110DTC; clone SA-3R1, mutation 2058G, selection plate 1 μg/mL FSA-513018b
  MIC: > 128 µg/mL
E. coli strain SQ110DTC; clone SA-3R2, mutation 2059G, selection plate […] FSA-513018b
  MIC: > 128 µg/mL
E. coli strain SQ110DTC; clone SA-3R9, mutation 2058G, selection plate […] FSA-513018b
  MIC: > 128 µg/mL
E. coli strain SQ110DTC; clone SA-3R13, mutation 2059G, selection plate 1 μg/mL FSA-513018b
  MIC: > 128 µg/mL
